The results in this text go back to patent US20240140986A1, “SYNTHETIC URSOLIC ACID DERIVATIVES AND METHODS OF USE THEREOF” (REATA PHARMACEUTICALS, INC., priority 2021, published 2024).

The test system of test [1] is IFNγ-induced NO production in RAW 264.7 cells. In words: Nitric Oxide Suppression Assay (IFNγ-induced NO, Griess nitrite readout). In kind it is cell-based, mouse. To be noted: for IC50: Mus musculus; for Avg NO IC50 Relative to RTA402 (fold): Table 2, ratio to RTA402. An outline of the steps:
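RAW 264.7 mouse macrophages in RPMI 1640 with 0.5% FBS were pretreated 2 h with compound (0.1% DMSO final), then stimulated with 20 ng/mL IFNγ for 24 h at 37° C. Supernatant nitrite was read by Griess absorbance at 525 nm against a nitrite standard curve, normalized to DMSO-IFNγ wells; IC50 from curve fit. Viability by WST-1.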

Test [2] deals with Nrf2 / ARE-dependent luciferase in AREc32 reporter cell line. In words: AREc32 luciferase reporter activation (Nrf2 induction). It is filed as cell-based, human. To be noted: for EC (2-fold): Homo sapiens, Arec32; for Relative Avg AREc32 EC2X Relative to RTA402 (fold): ratio to RTA402. An outline of the steps:
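EC2X is the concentration raising luminescence 2-fold above DMSO-treated cells, from a nonlinear-regression dose–response fit. Compounds (0.03–1000 nM) were applied for nineteen hours, starting one day after seeding 20,000 reporter cells per well. Luciferase was read with One-Glo reagent.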
(A reporter such as luciferase makes a cellular process visible.)

The mark [3] stands for this setting: RAW264.7, Table 2, RAW 264.7 cells, 2 h pretreatment, 20 ng/mL interferon gamma 24 h, read-out: Avg NO IC50 (nM) (Mean ± SD).
Setting [4] is: RAW264.7, Table 3, ursolic acid derivatives, read-out: Avg NO IC50 (nM) (Mean ± SD).
[5] abbreviates: Table 2, concentration increasing luminescence 2-fold above vehicle, 19 h treatment, read-out: Avg AREc32 EC2X (nM) (Mean ± SD).
Where [6] appears, read: Table 3, ursolic acid derivatives, read-out: Avg ARE EC-2X (nM) (Mean ± SD).
The mark [7] stands for this setting: RAW264.7, Table 3, oleanolic acid derivative analogs, read-out: Avg NO IC50.
Setting [8] is: Table 3, oleanolic acid derivative analogs, read-out: Avg ARE EC-2X.

The structures appear in SMILES notation. Where two headings read alike, the source gives them in different places.

On to `C[C@@H]1[C@H]2[C@H]3C(=O)C=C4[C@@]5(C)C=C(C#N)C(=O)C(C)(C)[C@@H]5CC[C@@]4(C)[C@]3(C)CC[C@@]2(N2CCCC2=O)CC[C@H]1C` [Compound T58], for which the IC50 in test [1] (setting [3]) and in test [1] (setting [4]) was 26 ± 8.8 nM throughout. Further, the “Avg NO IC50 Relative to RTA402 (fold)” value in test [1] worked out at 8.67 ± 3.30 fold. For the same compound, the EC (2-fold) in test [2] (setting [5]) and in test [2] (setting [6]) was 33.6 ± 3.3 nM in each case. Further, the “Relative Avg AREc32 EC2X Relative to RTA402 (fold)” value in test [2] (Table 2) is on record as 2.64 ± 0.47 fold.

Consider `C[C@@H]1[C@H]2[C@H]3C(=O)C[C@@H]4[C@@]5(C)C=C(C#N)C(=O)C(C)(C)[C@@H]5CC[C@@]4(C)[C@]3(C)CC[C@@]2(CCC(=O)N2CCC2)CC[C@H]1C` [Compound T105], for which the IC50 in test [1] (setting [3]) was 52.4 ± 13.8 nM. Moreover, in test [1], the “Avg NO IC50 Relative to RTA402 (fold)” value is recorded as 36.7 ± 17^ fold. For the same compound, the EC (2-fold) in test [2] (setting [5]) amounted to 103 ± 37 nM. For the same compound, in test [2] (Table 2), the “Relative Avg AREc32 EC2X Relative to RTA402 (fold)” value is recorded as 10.7 ± 3.3 fold.

In the case of `[2H]C([2H])([2H])C(=O)N(C)C[C@]12CC[C@@H](C)[C@H](C)[C@H]1[C@H]1C(=O)C=C3[C@@]4(C)C=C(C#N)C(=O)C(C)(C)[C@@H]4CC[C@@]3(C)[C@]1(C)CC2` [Compound T37], the IC50 in test [1] (setting [3]) was determined as 5.76 ± 1.38 nM. The “Avg NO IC50 Relative to RTA402 (fold)” value in test [1] is reported as 2.08 ± 0.31 fold. Also, the EC (2-fold) in test [2] (setting [5]) was 6.04 ± 2.15 nM. The “Relative Avg AREc32 EC2X Relative to RTA402 (fold)” value in test [2] (Table 2) was determined as 0.486 ± 0.047 fold.

As for `CC1(C)CC[C@]2(n3ccnc3)CC[C@]3(C)[C@H](C(=O)C=C4[C@@]5(C)C=C(C#N)C(=O)C(C)(C)[C@@H]5CC[C@]43C)[C@@H]2C1` [CC62, reference compound], the IC50 in test [1] (setting [7]) was 3.2 nM. Moreover, the EC (2-fold) in test [2] (setting [8]) was determined as 26.8 nM.

`C[C@@H]1[C@H]2[C@H]3C(=O)C=C4[C@@]5(C)C=C(C#N)C(=O)C(C)(C)[C@@H]5CC[C@@]4(C)[C@]3(C)CC[C@@]2(CO)CC[C@H]1C` [Compound T13]: the IC50 in test [1] (setting [3]) and in test [1] (setting [4]) was 1.86 ± 0.32 nM throughout. In addition, the “Avg NO IC50 Relative to RTA402 (fold)” value in test [1] worked out at 1.25 ± 0.21 fold. For the same compound, the EC (2-fold) in test [2] (setting [5]) and in test [2] (setting [6]) was 4.95 ± 0.63 nM throughout. Moreover, the “Relative Avg AREc32 EC2X Relative to RTA402 (fold)” value in test [2] (Table 2) amounted to 0.358 ± 0.016 fold.

For `C[C@@H]1[C@H]2[C@H]3C(=O)C=C4[C@@]5(C)C=C(C#N)C(=O)C(C)(C)[C@@H]5CC[C@@]4(C)[C@]3(C)CC[C@@]2(CC(N)=O)CC[C@H]1C` [Compound T90], the IC50 in test [1] (setting [3]) was determined as 8.74 ± 2.77 nM. Further, the “Avg NO IC50 Relative to RTA402 (fold)” value in test [1] was determined as 4.60 ± 2.34 fold. In addition, in test [2] (setting [5]), the EC (2-fold) was 3.71 ± 0.99 nM. Further, the “Relative Avg AREc32 EC2X Relative to RTA402 (fold)” value in test [2] (Table 2) turned out to be 0.455 ± 0.131 fold.

Regarding `C[C@@H]1[C@H]2[C@H]3C(=O)C=C4[C@@]5(C)C=C(C#N)C(=O)C(C)(C)[C@@H]5CC[C@@]4(C)[C@]3(C)CC[C@@]2(CN2NCCC2=O)CC[C@H]1C` [Compound T54], the IC50 in test [1] (setting [3]) and in test [1] (setting [4]) was 6.42 ± 1.07 nM in each case. For the same compound, the “Avg NO IC50 Relative to RTA402 (fold)” value in test [1] turned out to be 1.84 ± 0.45 fold. Further, the EC (2-fold) in test [2] (setting [5]) and in test [2] (setting [6]) was 4.92 ± 1.14 nM in each case. Besides, the “Relative Avg AREc32 EC2X Relative to RTA402 (fold)” value in test [2] (Table 2) was 0.403 ± 0.103 fold.

In the case of `C[C@@H]1[C@H]2[C@H]3C(=O)C=C4[C@@]5(C)C=C(C#N)C(=O)C(C)(C)[C@@H]5CC[C@@]4(C)[C@]3(C)CC[C@@]2(O)CC[C@H]1C` [Compound T68], the IC50 in test [1] (setting [3]) was 7.24 ± 0.77 nM. Moreover, in test [1], the “Avg NO IC50 Relative to RTA402 (fold)” value worked out at 2.70 ± 0.28 fold. In test [2] (setting [5]), the EC (2-fold) amounted to 7.56 ± 0.77 nM. Besides, the “Relative Avg AREc32 EC2X Relative to RTA402 (fold)” value in test [2] (Table 2) stood at 0.575 ± 0.141 fold.

Take `CC1(C)CC[C@]2(Cn3ccnn3)CC[C@]3(C)[C@H](C(=O)C=C4[C@@]5(C)C=C(C#N)C(=O)C(C)(C)[C@@H]5CC[C@]43C)[C@@H]2C1` [CC50, reference compound]: the IC50 in test [1] (setting [7]) turned out to be 1.1 nM. Further, in test [2] (setting [8]), the EC (2-fold) worked out at 9.57 nM.

As to `C[C@@H]1[C@H]2[C@H]3C(=O)C=C4[C@@]5(C)C=C(C#N)C(=O)C(C)(C)[C@@H]5CC[C@@]4(C)[C@]3(C)CC[C@@]2(CCC(=O)N2CCC2)CC[C@H]1C` [Compound T80], in test [1] (setting [3]), the IC50 is 2.76 ± 1.02 nM. The “Avg NO IC50 Relative to RTA402 (fold)” value in test [1] is recorded as 1.09 ± 0.03 fold. Moreover, in test [2] (setting [5]), the EC (2-fold) was 3.72 ± 0.14 nM. The “Relative Avg AREc32 EC2X Relative to RTA402 (fold)” value in test [2] (Table 2) was 0.311 ± 0.023 fold.

Regarding `Cc1cn(C[C@]23CC[C@@H](C)[C@H](C)[C@H]2[C@H]2C(=O)C=C4[C@@]5(C)C=C(C#N)C(=O)C(C)(C)[C@@H]5CC[C@@]4(C)[C@]2(C)CC3)nn1` [Compound T49], the IC50 in test [1] (setting [3]) and in test [1] (setting [4]) was 11.5 ± 2.6 nM each time. In test [1], the “Avg NO IC50 Relative to RTA402 (fold)” value is recorded as 3.77 ± 0.33 fold. Further, the EC (2-fold) in test [2] (setting [5]) and in test [2] (setting [6]) was 7.97 ± 0.73 nM throughout. For the same compound, the “Relative Avg AREc32 EC2X Relative to RTA402 (fold)” value in test [2] (Table 2) is 0.643 ± 0.116 fold.

As for `COC(=O)N1CCC(=O)N1C[C@]12CC[C@@H](C)[C@H](C)[C@H]1[C@H]1C(=O)C=C3[C@@]4(C)C=C(C#N)C(=O)C(C)(C)[C@@H]4CC[C@@]3(C)[C@]1(C)CC2` [Compound T53], in test [1] (setting [3]), the IC50 was 2.79 ± 0.59 nM. For the same compound, in test [1], the “Avg NO IC50 Relative to RTA402 (fold)” value came out at 0.82 ± 0.08 fold. Also, the EC (2-fold) in test [2] (setting [5]) was 1.74 ± 0.47 nM. The “Relative Avg AREc32 EC2X Relative to RTA402 (fold)” value in test [2] (Table 2) amounted to 0.173 ± 0.054 fold.

On to `CC1(C)CC[C@]2(c3nc(CO)no3)CC[C@]3(C)[C@H](C(=O)C=C4[C@@]5(C)C=C(C#N)C(=O)C(C)(C)[C@@H]5CC[C@]43C)[C@@H]2C1` [CC10, reference compound], for which the IC50 in test [1] (setting [7]) was found to be 2.1 nM. The EC (2-fold) in test [2] (setting [8]) turned out to be 3.39 nM.

In the case of `C[C@@H]1[C@H]2[C@H]3C(=O)C=C4[C@@]5(C)C=C(C#N)C(=O)C(C)(C)[C@@H]5CC[C@@]4(C)[C@]3(C)CC[C@@]2(C=O)CC[C@H]1C` [Compound T83], the IC50 in test [1] (setting [3]) was found to be 4.43 ± 2.68 nM. Moreover, the “Avg NO IC50 Relative to RTA402 (fold)” value in test [1] is on record as 2.75 ± 1.67 fold. The EC (2-fold) in test [2] (setting [5]) came out at 2.37 ± 0.33 nM. Moreover, in test [2] (Table 2), the “Relative Avg AREc32 EC2X Relative to RTA402 (fold)” value is given as 0.294 ± 0.048 fold.

On to `C[C@@H]1[C@H]2[C@H]3C(=O)C=C4[C@@]5(C)C=C(C#N)C(=O)C(C)(C)[C@@H]5CC[C@@]4(C)[C@]3(C)CC[C@@]2(CN2C(=O)CCC2=O)CC[C@H]1C` [Compound T75], for which the IC50 in test [1] (setting [3]) was determined as 3.23 ± 0.65 nM. Besides, the “Avg NO IC50 Relative to RTA402 (fold)” value in test [1] is 1.46 ± 0.46 fold. Also, the EC (2-fold) in test [2] (setting [5]) was found to be 2.47 ± 0.64 nM. Moreover, the “Relative Avg AREc32 EC2X Relative to RTA402 (fold)” value in test [2] (Table 2) was found to be 0.242 ± 0.070 fold.

Take `C[C@@H]1[C@H]2[C@H]3C(=O)C=C4[C@@]5(C)C=C(C#N)C(=O)C(C)(C)[C@@H]5CC[C@@]4(C)[C@]3(C)CC[C@@]2(CN2CCCC2=O)CC[C@H]1C` [Compound T15]: the IC50 in test [1] (setting [3]) and in test [1] (setting [4]) was 4.2 ± 2.4 nM each time. Besides, in test [1], the “Avg NO IC50 Relative to RTA402 (fold)” value came to 1.99 ± 0.20 fold. For the same compound, the EC (2-fold) in test [2] (setting [5]) and in test [2] (setting [6]) was 5.21 ± 1.11 nM throughout. In addition, in test [2] (Table 2), the “Relative Avg AREc32 EC2X Relative to RTA402 (fold)” value is 0.447 ± 0.085 fold.

Take `C[C@@H]1[C@H]2[C@H]3C(=O)C=C4[C@@]5(C)C=C(C#N)C(=O)C(C)(C)[C@@H]5CC[C@@]4(C)[C@]3(C)CC[C@@]2(CN2CCC2)CC[C@H]1C` [Compound T55]: the IC50 in test [1] (setting [3]) and in test [1] (setting [4]) was 14.6 ± 3 nM in each case. Besides, in test [1], the “Avg NO IC50 Relative to RTA402 (fold)” value is listed as 5.21 ± 2.77 fold. For the same compound, the EC (2-fold) in test [2] (setting [5]) and in test [2] (setting [6]) was 14.4 ± 1.3 nM each time. Moreover, in test [2] (Table 2), the “Relative Avg AREc32 EC2X Relative to RTA402 (fold)” value was 1.12 ± 0.09 fold.

As usually defined, the IC50 is the concentration that gives 50% inhibition.
